The NIST ThermoML archive (doi:10.1021/je9008624)
Numbers after ± are expanded uncertainties.

Key:
[1] = refractive index (Na D-line) (dimensionless); settings: 298.15 K; 101.33 kPa; Liquid
[2] = 298.15 K; 101 kPa; Liquid
[3] = refractive index (Na D-line) (dimensionless); xn = mol fraction of the nth substance listed; settings: 298.15 K, 101 kPa, Liquid
[4] = xn = mol fraction of the nth substance listed; settings: 298.15 K, 101 kPa, Liquid

CCCCn1cc[n+](C)c1.F[B-](F)(F)F [1-butyl-3-methylimidazolium tetrafluoroborate]
refractive index [1]: 1.41831 ± 0.00066
mass density [2]: 1192.78 ± 0.71 kg/m3

CCCCn1cc[n+](C)c1.F[B-](F)(F)F [1-butyl-3-methylimidazolium tetrafluoroborate] + CO
refractive index ([3]; x2 = 0): 1.41831 ± 0.00066
refractive index ([3]; x2 = 0.0517): 1.41844 ± 0.00066
refractive index ([3]; x2 = 0.104): 1.41726 ± 0.00066
refractive index ([3]; x2 = 0.1995): 1.41454 ± 0.00066
refractive index ([3]; x2 = 0.2975): 1.41296 ± 0.00065
refractive index ([3]; x2 = 0.3993): 1.41485 ± 0.00065
refractive index ([3]; x2 = 0.5002): 1.41652 ± 0.00065
refractive index ([3]; x2 = 0.599): 1.41435 ± 0.00065
refractive index ([3]; x2 = 0.6994): 1.40537 ± 0.00065
refractive index ([3]; x2 = 0.7997): 1.39145 ± 0.00064
refractive index ([3]; x2 = 0.9): 1.37496 ± 0.00064
refractive index ([3]; x2 = 0.9501): 1.36221 ± 0.00064
mass density ([4]; x2 = 0): 1192.78 ± 0.71 kg/m3
mass density ([4]; x2 = 0.0517): 1188.58 ± 0.68 kg/m3
mass density ([4]; x2 = 0.104): 1183.87 ± 0.66 kg/m3
mass density ([4]; x2 = 0.1995): 1174.09 ± 0.62 kg/m3
mass density ([4]; x2 = 0.2975): 1162.14 ± 0.57 kg/m3
mass density ([4]; x2 = 0.3993): 1146.82 ± 0.52 kg/m3
mass density ([4]; x2 = 0.5002): 1127.34 ± 0.48 kg/m3
mass density ([4]; x2 = 0.599): 1102.37 ± 0.42 kg/m3
mass density ([4]; x2 = 0.6994): 1067.86 ± 0.35 kg/m3
mass density ([4]; x2 = 0.7997): 1016.59 ± 0.26 kg/m3
mass density ([4]; x2 = 0.9): 934.6 ± 0.29 kg/m3
mass density ([4]; x2 = 0.9501): 872.82 ± 0.37 kg/m3

CCCCn1cc[n+](C)c1.F[B-](F)(F)F [1-butyl-3-methylimidazolium tetrafluoroborate] + COC(=O)OC
refractive index ([3]; x2 = 0): 1.41831 ± 0.00066
refractive index ([3]; x2 = 0.051): 1.4176 ± 0.00066
refractive index ([3]; x2 = 0.1014): 1.41675 ± 0.00066
refractive index ([3]; x2 = 0.1987): 1.41501 ± 0.00066
refractive index ([3]; x2 = 0.2999): 1.41282 ± 0.00065
refractive index ([3]; x2 = 0.4012): 1.41049 ± 0.00065
refractive index ([3]; x2 = 0.5): 1.40796 ± 0.00065
refractive index ([3]; x2 = 0.6005): 1.40459 ± 0.00065
refractive index ([3]; x2 = 0.7007): 1.39931 ± 0.00064
refractive index ([3]; x2 = 0.8003): 1.39196 ± 0.00064
refractive index ([3]; x2 = 0.9): 1.38162 ± 0.00064
mass density ([4]; x2 = 0): 1192.78 ± 0.71 kg/m3
mass density ([4]; x2 = 0.051): 1191.17 ± 0.69 kg/m3
mass density ([4]; x2 = 0.1014): 1189.24 ± 0.67 kg/m3
mass density ([4]; x2 = 0.1987): 1184.98 ± 0.64 kg/m3
mass density ([4]; x2 = 0.2999): 1179.76 ± 0.6 kg/m3
mass density ([4]; x2 = 0.4012): 1173.39 ± 0.57 kg/m3
mass density ([4]; x2 = 0.5): 1165.72 ± 0.54 kg/m3
mass density ([4]; x2 = 0.6005): 1155.89 ± 0.5 kg/m3
mass density ([4]; x2 = 0.7007): 1143.06 ± 0.46 kg/m3
mass density ([4]; x2 = 0.8003): 1125.52 ± 0.41 kg/m3
mass density ([4]; x2 = 0.9): 1100.22 ± 0.35 kg/m3

CCOS(=O)(=O)[O-].CCn1cc[n+](C)c1 [1-ethyl-3-methylimidazolium ethyl sulfate]
refractive index [1]: 1.47908 ± 0.00066
mass density [2]: 1236.33 ± 0.8 kg/m3

CCOS(=O)(=O)[O-].CCn1cc[n+](C)c1 [1-ethyl-3-methylimidazolium ethyl sulfate] + CO
refractive index ([3]; x2 = 0): 1.47908 ± 0.00066
refractive index ([3]; x2 = 0.0487): 1.47873 ± 0.00066
refractive index ([3]; x2 = 0.0977): 1.47637 ± 0.00066
refractive index ([3]; x2 = 0.1978): 1.47035 ± 0.00066
refractive index ([3]; x2 = 0.2989): 1.46618 ± 0.00065
refractive index ([3]; x2 = 0.3991): 1.46462 ± 0.00065
refractive index ([3]; x2 = 0.4991): 1.46284 ± 0.00065
refractive index ([3]; x2 = 0.5993): 1.45585 ± 0.00065
refractive index ([3]; x2 = 0.7002): 1.43992 ± 0.00065
refractive index ([3]; x2 = 0.7999): 1.41722 ± 0.00064
refractive index ([3]; x2 = 0.9002): 1.39225 ± 0.00064
refractive index ([3]; x2 = 0.9502): 1.37316 ± 0.00064
mass density ([4]; x2 = 0): 1236.33 ± 0.8 kg/m3
mass density ([4]; x2 = 0.0487): 1232.01 ± 0.77 kg/m3
mass density ([4]; x2 = 0.0977): 1227.32 ± 0.75 kg/m3
mass density ([4]; x2 = 0.1978): 1216.77 ± 0.7 kg/m3
mass density ([4]; x2 = 0.2989): 1203.48 ± 0.65 kg/m3
mass density ([4]; x2 = 0.3991): 1186.7 ± 0.6 kg/m3
mass density ([4]; x2 = 0.4991): 1165.38 ± 0.55 kg/m3
mass density ([4]; x2 = 0.5993): 1137.34 ± 0.48 kg/m3
mass density ([4]; x2 = 0.7002): 1098.94 ± 0.4 kg/m3
mass density ([4]; x2 = 0.7999): 1043.62 ± 0.31 kg/m3
mass density ([4]; x2 = 0.9002): 953.54 ± 0.27 kg/m3
mass density ([4]; x2 = 0.9502): 884.35 ± 0.36 kg/m3

CCOS(=O)(=O)[O-].CCn1cc[n+](C)c1 [1-ethyl-3-methylimidazolium ethyl sulfate] + COC(=O)OC
refractive index ([3]; x2 = 0): 1.47908 ± 0.00066
refractive index ([3]; x2 = 0.0502): 1.47687 ± 0.00066
refractive index ([3]; x2 = 0.0999): 1.47443 ± 0.00066
refractive index ([3]; x2 = 0.1987): 1.46971 ± 0.00066
refractive index ([3]; x2 = 0.2999): 1.46385 ± 0.00065
refractive index ([3]; x2 = 0.3994): 1.45729 ± 0.00065
refractive index ([3]; x2 = 0.5006): 1.44906 ± 0.00065
refractive index ([3]; x2 = 0.5999): 1.43953 ± 0.00065
refractive index ([3]; x2 = 0.7001): 1.42848 ± 0.00065
mass density ([4]; x2 = 0): 1236.33 ± 0.8 kg/m3
mass density ([4]; x2 = 0.0502): 1233.17 ± 0.77 kg/m3
mass density ([4]; x2 = 0.0999): 1229.81 ± 0.75 kg/m3
mass density ([4]; x2 = 0.1987): 1223.27 ± 0.71 kg/m3
mass density ([4]; x2 = 0.2999): 1215.47 ± 0.67 kg/m3
mass density ([4]; x2 = 0.3994): 1206.15 ± 0.63 kg/m3
mass density ([4]; x2 = 0.5006): 1194.57 ± 0.59 kg/m3
mass density ([4]; x2 = 0.5999): 1180.67 ± 0.55 kg/m3
mass density ([4]; x2 = 0.7001): 1163.11 ± 0.5 kg/m3

COC(=O)OC [dimethyl carbonate]
refractive index [1]: 1.36647 ± 0.00064
mass density [2]: 1063.28 ± 0.28 kg/m3

COC(=O)OC [dimethyl carbonate] + CCCCn1cc[n+](C)c1.F[B-](F)(F)F
refractive index ([3]; x1 = 1): 1.36647 ± 0.00064
mass density ([4]; x1 = 1): 1063.28 ± 0.28 kg/m3

COC(=O)OC [dimethyl carbonate] + CCOS(=O)(=O)[O-].CCn1cc[n+](C)c1
refractive index ([3]; x1 = 1): 1.36647 ± 0.00064
mass density ([4]; x1 = 1): 1063.28 ± 0.28 kg/m3

COC(=O)OC [dimethyl carbonate] + CO
refractive index ([3]; x1 = 0.0501): 1.33071 ± 0.00064
refractive index ([3]; x1 = 0.0997): 1.33427 ± 0.00064
refractive index ([3]; x1 = 0.2008): 1.34139 ± 0.00064
refractive index ([3]; x1 = 0.3003): 1.347 ± 0.00064
refractive index ([3]; x1 = 0.4002): 1.35162 ± 0.00064
refractive index ([3]; x1 = 0.5005): 1.35583 ± 0.00064
refractive index ([3]; x1 = 0.6004): 1.35891 ± 0.00064
refractive index ([3]; x1 = 0.7015): 1.36093 ± 0.00064
refractive index ([3]; x1 = 0.8012): 1.36336 ± 0.00064
refractive index ([3]; x1 = 0.8999): 1.36501 ± 0.00064
refractive index ([3]; x1 = 0.9483): 1.36566 ± 0.00064
refractive index ([3]; x1 = 1): 1.36647 ± 0.00064
mass density ([4]; x1 = 0.0501): 814.35 ± 0.45 kg/m3
mass density ([4]; x1 = 0.0997): 838.96 ± 0.41 kg/m3
mass density ([4]; x1 = 0.2008): 882.51 ± 0.36 kg/m3
mass density ([4]; x1 = 0.3003): 918.19 ± 0.31 kg/m3
mass density ([4]; x1 = 0.4002): 948.52 ± 0.27 kg/m3
mass density ([4]; x1 = 0.5005): 974.63 ± 0.24 kg/m3
mass density ([4]; x1 = 0.6004): 997.16 ± 0.2 kg/m3
mass density ([4]; x1 = 0.7015): 1017.04 ± 0.21 kg/m3
mass density ([4]; x1 = 0.8012): 1034.29 ± 0.23 kg/m3
mass density ([4]; x1 = 0.8999): 1049.44 ± 0.26 kg/m3
mass density ([4]; x1 = 0.9483): 1056.31 ± 0.27 kg/m3
mass density ([4]; x1 = 1): 1063.28 ± 0.28 kg/m3

CO [methanol]
refractive index [1]: 1.32668 ± 0.00064
mass density [2]: 786.72 ± 0.49 kg/m3

CO [methanol] + CCCCn1cc[n+](C)c1.F[B-](F)(F)F
refractive index ([3]; x1 = 1): 1.32668 ± 0.00064
mass density ([4]; x1 = 1): 786.72 ± 0.49 kg/m3

CO [methanol] + CCOS(=O)(=O)[O-].CCn1cc[n+](C)c1
refractive index ([3]; x1 = 1): 1.32668 ± 0.00064
mass density ([4]; x1 = 1): 786.72 ± 0.49 kg/m3

CO [methanol] + COC(=O)OC
refractive index ([3]; x2 = 0): 1.32668 ± 0.00064
mass density ([4]; x2 = 0): 786.72 ± 0.49 kg/m3
